Reference: patent publication US20220064167A1, “IMIDAZO-PYRAZOLE CARBOXAMIDE DERIVATIVES AS ANTICANCER AGENTS AND THE SYNTHESIS THEREOF” (AVIDIN KFT., priority 2018, published 2022)
“Also recorded” adds a separate entry of the source.

Columns and labels:
[1] = test system: HL-60 cells; assay: resazurin viability assay, Example 103 (FIG. 1); format: cell-based; details: Homo sapiens, 72 h incubation, 20.000 cells/well, read-out: half-inhibitory concentration (IC50) on viability of HL-60 cells
Method: The human primary fibroblasts (6000 cells/well) and Hl60 cells (20.000 cells/well) were seeded into 96-well plates (Corning Life Sciences) in media. Fibroblasts were cultured overnight before treatment. Effects of compounds described in Example 22, 60 and 83 were examined in concentrations of 1 μM, 250 nM, 62.5 nM, 15.6 nM, 3.9 nM and 0.9 nM in 100 μl after 72 h incubation. Resazurin reagent was prepared and used as described in Example 1.
(§1) Viability was calculated with relation to untreated control cells and blank wells containing media without cells. IC50 values (50% inhibiting concentration) were calculated by GraphPad Prism® 5.

[2] = test system: human primary fibroblasts; assay: resazurin viability assay on primary fibroblasts, Example 103 (FIG. 1); format: cell-based; details: 72 h incubation, applied concentration range 1.6 nM-5 μM
From the text: To obtain primary human fibroblasts healthy volunteers (age 18-60 years) were enrolled into the study. The punch biopsies were taken from healthy subjects from the breast area undergoing plastic surgery. Primary fibroblasts were obtained from the skin by enzymatic digestion according to a standard protocol. Skin specimens were first washed in Salsol A solution (Human Rt, Gödöllö, Hungary) supplemented with 2% antibiotic/antimycotic solution (Sigma-Aldrich). Skin samples were then cut into narrow strips and incubated in Dispase solution (Roche Diagnostics, Mannheim, Germany) overnight at 4° C. The epidermis was subsequently separated from the dermis. Fibroblasts were obtained by incubating the dermis in Digestion Mix solution (Collagenase, Hyaluronidase and Deoxyribonuclease) for 2h at 37° C. Cell suspensions were filtered through a 100 μm nylon mesh (BD Falcon, San Jose, Calif., USA) and cells were pelleted by centrifugation. Fibroblasts were grown in low glucose DMEM medium containing 5% FBS, 1% antibiotic/antimycotic (PAA, Pasching, Austria) and 1% L-glutamine solution (PAA). Fibroblasts were cultured at 37° C. and 5% CO2 in humidified conditions. Depending on the cell growth, the medium was changed every 2-4 days and cells were passaged at 80% of confluence.
The human primary fibroblasts (6000 cells/well) and Hl60 cells (20.000 cells/well) were seeded into 96-well plates (Corning Life Sciences) in media. Fibroblasts were cultured overnight before treatment. […] Resazurin reagent was prepared and used as described in Example 1.
as §1

[3] = test system: Bcl-xl in HL-60 cells; assay: flow cytometry of Bcl-xl bright cells (FIG. 2A); format: cell-based, human; details: HL-60, 40 nM, 200 nM and 1 μM, 24 h
Method: (§2) Human promyelocytic leukemia HL60 Cells (500,000/well) were plated in 24-well tissue culture plates (Corning Life Sciences) in RPMI 10% FCS (Gibco) and were treated with the compounds described in Example 60 and 83 at 40 nM, 200 nM and 1 μM concentrations in 500 μl media. After 24 h incubation time cells with the corresponding supernatants were harvested and centrifuged down (2000 rpm, 5 min).
(§3) Pellets were resuspended and fixed in 3.5% PBS buffered formaldehyde (Molar Chemicals) for 10 minutes. Cells were washed with FACS-buffer (2% FCS, (Gibco) in PBS), centrifuged down (2000 rpm, 5 min). Cells were permeabilized in Permeability buffer (1% FCS, 0.1% saponin (Sigma-Aldrich) in PBS pH 7.4) for 5 minutes. Cells were washed with FACS buffer (2% FCS, (Gibco) in PBS), centrifuged (2000 rpm, 5 min). The following primary antibodies were used: Bcl-xl-Alexa 488, (Cell Signaling, cat. numb. 2767S), dilution 1:75, 24 h; pAkt-Alexa Fluor 488, (Ser473), (Cell Signaling, cat. numb, 4071), dilution 1:50, 24 or 72h; After incubation for 1h at 4° C. samples were washed two times with FACS buffer. […] In order to calculate the signal to noise ratio mean fluorescent intensity (MFI) was calculated by the following equation: =POWER(10; (Medianstained−Median unstained, untreated)/Chd), where Chd means 256, the number of channels per decade (Fajka-Boja et al. 2002; Sharrow 2001) in Microsoft Excel. […]

[4] = test system: CD11b on HL-60 cells; assay: flow cytometry of cell surface CD11b (FIG. 3B); format: cell-based, human; details: HL-60, 24, 48 and 72 h after treatment
Method: Experiments detecting CD11b expression by Flow cytometric immunofluorescence were done as described in Example 104 without fixation and permeabilization. Native cell surface staining was done by CD11b-FITC (Immunotools cat number 21389113), with 1:20 dilution 24, 48 and 72 h after treatment.

[5] = test system: active caspase-3 in HL-60 cells; assay: caspase-3 activation by flow cytometric immunofluorescence (FIG. 5); format: cell-based, human; details: HL-60, FIG. 5
Method: as §2, §3

[6] = test system: HTT199 human melanoma cells in SCID immune-deficient mouse; assay: melanoma mouse model (FIG. 8); format: in vivo; details: 3 mg/kg intravenously, 10 occasions
Method: The effect on melanoma was studied on SCID immune-deficient mouse model inoculated in the spleen with HTT199 human melanoma cells (ATCC) (1 million cells/animal). Two groups were formed from randomly selected mice, with 10 animals in each group. Group 1: control group, it was only administered a carrier (0.1 mL, 0.9% NaCl solution) intravenously; group 2: group treated with compound 83, it was administered 3 mg/kg of compound 83 in PEG100:Solutol:PBS (1:4:15 vol ratio), intravenously.
The treatments were performed from the third day, on five consecutive occasions per week, for 2 weeks, on a total of 10 occasions. As time went on, every day we determined the number of surviving animals and represented it in percentage per group as compared to the total initial number of animals (FIG. 8). It can be seen that the 3 mg/kg dose of compound 83 administered intravenously was effective, the treatment with compound 83 increased the LD50 (from day 33 to day 38) and the survival rate of the animals.

| Compound | IC50 [1] [nM] | decrease in viability of human primary fibroblasts [2] | percentage of the Bcl-xl bright cells [3] | matured myeloid cell marker CD11b on the cell surface [4] | percentage of active caspase-3 positive cells [5] | survival rate of the animals [6] | median survival time ([6]; control day 33) [days] |
| --- | --- | --- | --- | --- | --- | --- | --- |
| CC(C)(C)Nc1c(C(C)(C)C)[nH]c2c(C(=O)Nc3ccc(N)cc3)cnn12 [Example 83, N-(4-Aminophenyl)-2-(tert-butyl)-3-(tert-butylamino)-1H-imidazo[1,2-b]pyrazole-7-carboxamide] | 50 | Significant decrease in viability was not apparent | increase | elevation; also recorded: elevated | increased | increased | 38 |
| CC(C)(C)Nc1c(C(C)(C)C)[nH]c2c(C(=O)Nc3ccc(F)cc3)cnn12 [Example 60, 2-(Tert-butyl)-N-(4-fluorophenyl)-3-((tert-butyl-2-yl)amino)-1H-imidazo[1,2-b]pyrazole-7-carboxamide] | 210 | Significant decrease in viability was not apparent | increase |  | increased |  |  |
